Data taken from US20250333371A1, “COMPOUNDS” (PSYLO PTY LTD, priority 2022, published 2025).

Target: T1, 5-HT2B (Homo sapiens, UniProt P41595)
T1 construct: host or cells: CHO-K1
Assay: FLIPR Ca2+ flux functional assay, 5-HT2B receptor (stably transfected CHO-K1)
Type: cell-based
Experimental: Activity at 5-HT2A, 5-HT2B and 5-HT2C receptors was determined using a FLIPR Ca^2+ flux assay at WuXi AppTec Co. Ltd. (Hong Kong) Discovery Biology Unit according to their standard protocols. Briefly, stably transfected cells expressing the receptor of interest (HEK293 for 5-HT2A and 5-HT2C; CHO-K1 for 5-HT2B) were grown and plated in a 384 well plate and incubated at 37° C. and 5% CO2 overnight. A 250 mM stock solution of probenecid in FLIPR calcium assay buffer (10 mL) was freshly prepared and combined with a fluorescent dye (Fluo-4 Direct) to give a final assay concentration of 2.5 mM. Reference compounds were 4-fold serially diluted and the screening compounds were 3-fold serially diluted in 100% DMSO for 10 points using Agilent Bravo, and 750 nL was added to a 384 well compound plate using Echo along with 30 μL assay buffer. The fluorescent dye was then added to the assay plate along with assay buffer to a final volume of 40 μL. The cell plate was incubated for 50 min at 37° C. and 5% CO2 and placed into the FLIPR Tetra along with the compound plate. 10 μL of references and compounds were then transferred from the compound plate into the cell plate and the fluorescent signal was read.

T1 sequence (P41595 whole entry): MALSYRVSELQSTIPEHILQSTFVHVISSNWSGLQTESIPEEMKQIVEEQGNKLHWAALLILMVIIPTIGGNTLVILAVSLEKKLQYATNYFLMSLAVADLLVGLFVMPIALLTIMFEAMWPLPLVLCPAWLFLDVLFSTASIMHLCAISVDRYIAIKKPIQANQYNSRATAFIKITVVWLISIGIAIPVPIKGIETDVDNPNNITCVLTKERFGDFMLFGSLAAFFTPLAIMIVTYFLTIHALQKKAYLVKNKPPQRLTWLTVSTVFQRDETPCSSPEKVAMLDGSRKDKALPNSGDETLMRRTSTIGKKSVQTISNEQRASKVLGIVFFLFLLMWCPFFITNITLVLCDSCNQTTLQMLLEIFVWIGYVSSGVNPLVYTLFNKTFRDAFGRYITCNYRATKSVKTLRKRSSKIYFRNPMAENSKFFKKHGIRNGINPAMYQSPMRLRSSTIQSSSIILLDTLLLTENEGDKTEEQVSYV

COc1ccc2cccc(CCN(C)C(C)C)c2c1 [Example I-7, N-(2-(7-methoxynaphthalen-1-yl)ethyl)-N-methylpropan-2-amine]
EC50: > 10 µM | Emax (agonist activity, Ca2+ flux, CHO-K1): 36%
